{"source": "paper doi:10.1101/2021.04.08.439011v1", "about": "(biorxiv, 2021)", "key": {"CAMK1": {"biological_target": "CAMK1 (Homo sapiens, UniProt Q14012)", "details": "0.1 µM; binder"}, "ABL1(T315I)": {"biological_target": "ABL1(T315I) (Homo sapiens, UniProt P00519, T315I)", "details": "0.1 µM, binder"}, "LIMK1": {"biological_target": "LIMK1 (Homo sapiens, UniProt P53667)", "details": "0.1 µM; binder"}, "MAP3K1": {"biological_target": "MAP3K1 (Homo sapiens, UniProt Q13233)", "details": "0.1 µM; binder"}, "ROS1": {"biological_target": "ROS1 (Homo sapiens, UniProt P08922)", "sequence (P08922 whole entry)": "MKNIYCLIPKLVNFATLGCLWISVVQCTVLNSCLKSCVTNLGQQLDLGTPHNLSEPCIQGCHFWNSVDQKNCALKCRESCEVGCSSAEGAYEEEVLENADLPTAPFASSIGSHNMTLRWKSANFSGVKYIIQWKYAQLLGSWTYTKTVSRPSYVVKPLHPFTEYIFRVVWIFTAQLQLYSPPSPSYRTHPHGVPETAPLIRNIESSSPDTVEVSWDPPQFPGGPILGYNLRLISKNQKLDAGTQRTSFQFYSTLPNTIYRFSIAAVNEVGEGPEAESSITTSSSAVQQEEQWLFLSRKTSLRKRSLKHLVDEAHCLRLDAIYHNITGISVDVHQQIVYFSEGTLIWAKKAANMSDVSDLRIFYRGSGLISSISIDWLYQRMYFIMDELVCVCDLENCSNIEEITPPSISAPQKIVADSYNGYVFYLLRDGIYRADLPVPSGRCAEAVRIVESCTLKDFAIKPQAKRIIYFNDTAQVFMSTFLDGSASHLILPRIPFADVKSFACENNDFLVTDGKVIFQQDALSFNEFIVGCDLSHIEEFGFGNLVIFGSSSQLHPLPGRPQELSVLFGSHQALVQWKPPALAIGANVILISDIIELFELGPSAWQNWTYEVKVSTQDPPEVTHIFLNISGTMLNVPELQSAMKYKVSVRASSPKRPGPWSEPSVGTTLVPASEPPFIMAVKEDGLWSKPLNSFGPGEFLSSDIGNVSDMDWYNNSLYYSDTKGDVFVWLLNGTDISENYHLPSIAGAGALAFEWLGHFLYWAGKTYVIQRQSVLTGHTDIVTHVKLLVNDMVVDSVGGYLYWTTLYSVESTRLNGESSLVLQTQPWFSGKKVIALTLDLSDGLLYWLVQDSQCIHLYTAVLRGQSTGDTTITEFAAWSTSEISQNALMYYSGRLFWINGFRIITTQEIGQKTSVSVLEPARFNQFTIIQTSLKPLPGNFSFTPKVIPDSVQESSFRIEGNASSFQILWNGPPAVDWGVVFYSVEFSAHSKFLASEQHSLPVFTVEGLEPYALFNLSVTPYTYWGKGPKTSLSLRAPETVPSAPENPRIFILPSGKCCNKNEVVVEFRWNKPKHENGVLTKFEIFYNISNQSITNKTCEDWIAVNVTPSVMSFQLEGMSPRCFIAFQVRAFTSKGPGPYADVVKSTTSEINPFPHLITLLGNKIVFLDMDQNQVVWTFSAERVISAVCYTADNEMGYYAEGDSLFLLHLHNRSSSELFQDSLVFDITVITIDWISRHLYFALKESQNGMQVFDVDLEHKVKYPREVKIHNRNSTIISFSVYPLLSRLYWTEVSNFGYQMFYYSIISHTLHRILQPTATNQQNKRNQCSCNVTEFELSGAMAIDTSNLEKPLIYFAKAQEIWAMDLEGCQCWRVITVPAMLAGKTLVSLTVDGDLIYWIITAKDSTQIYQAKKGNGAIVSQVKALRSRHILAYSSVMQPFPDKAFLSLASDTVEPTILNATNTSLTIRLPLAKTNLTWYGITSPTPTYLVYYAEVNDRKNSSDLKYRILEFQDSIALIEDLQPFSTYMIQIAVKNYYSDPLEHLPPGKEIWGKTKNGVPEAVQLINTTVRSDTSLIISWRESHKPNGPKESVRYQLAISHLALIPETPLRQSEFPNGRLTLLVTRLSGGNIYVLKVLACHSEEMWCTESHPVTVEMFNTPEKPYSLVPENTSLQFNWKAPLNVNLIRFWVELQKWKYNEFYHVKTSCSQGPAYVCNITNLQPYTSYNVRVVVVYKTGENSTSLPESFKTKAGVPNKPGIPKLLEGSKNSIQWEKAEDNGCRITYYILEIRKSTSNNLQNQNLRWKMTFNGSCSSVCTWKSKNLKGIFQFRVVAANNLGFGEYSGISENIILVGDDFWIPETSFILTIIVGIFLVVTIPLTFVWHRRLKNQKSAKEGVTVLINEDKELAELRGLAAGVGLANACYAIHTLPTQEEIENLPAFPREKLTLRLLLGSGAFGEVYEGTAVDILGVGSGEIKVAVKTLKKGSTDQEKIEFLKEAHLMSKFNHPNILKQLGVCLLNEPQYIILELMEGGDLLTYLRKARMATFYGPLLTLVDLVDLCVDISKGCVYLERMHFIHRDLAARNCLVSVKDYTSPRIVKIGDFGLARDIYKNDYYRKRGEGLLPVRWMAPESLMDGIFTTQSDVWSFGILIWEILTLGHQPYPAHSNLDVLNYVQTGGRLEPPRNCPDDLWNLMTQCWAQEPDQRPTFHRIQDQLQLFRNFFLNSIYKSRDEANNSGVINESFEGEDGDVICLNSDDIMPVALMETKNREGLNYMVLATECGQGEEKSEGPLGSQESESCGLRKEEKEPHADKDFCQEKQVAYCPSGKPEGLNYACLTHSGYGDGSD", "details": "0.1 µM; binder"}, "SLK": {"biological_target": "SLK (Homo sapiens, UniProt Q9H2G2)", "details": "0.1 µM; binder"}, "CDKL1": {"biological_target": "CDKL1 (Homo sapiens, UniProt Q00532)", "details": "0.1 µM; binder"}, "CSNK1G2": {"biological_target": "CSNK1G2 (Homo sapiens, UniProt P78368)", "details": "0.1 µM; binder"}, "CSNK1D": {"biological_target": "CSNK1D (Homo sapiens, UniProt P48730)", "details": "0.1 µM; binder"}, "ABL1(H396P)": {"biological_target": "ABL1(H396P) (Homo sapiens, UniProt P00519, H396P)", "details": "0.1 µM, binder"}, "CHEK1": {"biological_target": "CHEK1 (Homo sapiens, UniProt O14757)", "details": "0.1 µM; binder"}, "YSK1": {"biological_target": "YSK1 (Homo sapiens, UniProt O00506)", "details": "0.1 µM; binder"}, "GRK2": {"biological_target": "GRK2 (Homo sapiens, UniProt P25098)", "details": "0.1 µM; binder"}, "PRKCI": {"biological_target": "PRKCI (Homo sapiens, UniProt P41743)", "details": "0.1 µM; binder"}, "YSK4": {"biological_target": "YSK4 (Homo sapiens, UniProt Q56UN5)", "details": "0.1 µM; binder"}, "KIT(D816H)": {"biological_target": "KIT(D816H) (Homo sapiens, UniProt P10721, D816H)", "details": "0.1 µM; binder"}, "MEK6": {"biological_target": "MEK6 (Homo sapiens, UniProt P52564)", "details": "0.1 µM; binder"}, "CAMK2D": {"biological_target": "CAMK2D (Homo sapiens, UniProt Q13557)", "details": "0.1 µM; binder"}, "PLK3": {"biological_target": "PLK3 (Homo sapiens, UniProt Q9H4B4)", "details": "0.1 µM; binder"}, "PRKCE": {"biological_target": "PRKCE (Homo sapiens, UniProt Q02156)", "sequence (Q02156 whole entry)": "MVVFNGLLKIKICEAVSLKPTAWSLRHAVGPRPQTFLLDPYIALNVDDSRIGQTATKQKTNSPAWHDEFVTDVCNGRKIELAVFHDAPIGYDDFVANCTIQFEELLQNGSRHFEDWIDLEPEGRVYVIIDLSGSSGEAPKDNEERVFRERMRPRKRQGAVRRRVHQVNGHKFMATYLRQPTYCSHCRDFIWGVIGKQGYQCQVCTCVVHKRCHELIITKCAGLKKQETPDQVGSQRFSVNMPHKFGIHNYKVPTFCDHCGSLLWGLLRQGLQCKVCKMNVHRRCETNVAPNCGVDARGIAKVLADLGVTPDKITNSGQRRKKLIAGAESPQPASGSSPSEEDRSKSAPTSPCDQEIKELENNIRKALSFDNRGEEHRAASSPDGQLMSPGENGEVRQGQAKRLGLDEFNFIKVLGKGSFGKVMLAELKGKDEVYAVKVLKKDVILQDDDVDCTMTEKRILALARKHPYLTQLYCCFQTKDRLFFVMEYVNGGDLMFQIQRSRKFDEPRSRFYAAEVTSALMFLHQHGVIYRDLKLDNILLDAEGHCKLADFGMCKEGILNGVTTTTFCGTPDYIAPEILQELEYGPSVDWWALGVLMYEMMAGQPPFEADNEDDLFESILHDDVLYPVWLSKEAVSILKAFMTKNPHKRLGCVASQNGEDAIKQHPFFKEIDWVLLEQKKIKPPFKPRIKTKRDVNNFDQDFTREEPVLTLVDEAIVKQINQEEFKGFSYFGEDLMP", "details": "0.1 µM; binder"}, "NEK9": {"biological_target": "NEK9 (Homo sapiens, UniProt Q8TD19)", "sequence (Q8TD19 whole entry)": "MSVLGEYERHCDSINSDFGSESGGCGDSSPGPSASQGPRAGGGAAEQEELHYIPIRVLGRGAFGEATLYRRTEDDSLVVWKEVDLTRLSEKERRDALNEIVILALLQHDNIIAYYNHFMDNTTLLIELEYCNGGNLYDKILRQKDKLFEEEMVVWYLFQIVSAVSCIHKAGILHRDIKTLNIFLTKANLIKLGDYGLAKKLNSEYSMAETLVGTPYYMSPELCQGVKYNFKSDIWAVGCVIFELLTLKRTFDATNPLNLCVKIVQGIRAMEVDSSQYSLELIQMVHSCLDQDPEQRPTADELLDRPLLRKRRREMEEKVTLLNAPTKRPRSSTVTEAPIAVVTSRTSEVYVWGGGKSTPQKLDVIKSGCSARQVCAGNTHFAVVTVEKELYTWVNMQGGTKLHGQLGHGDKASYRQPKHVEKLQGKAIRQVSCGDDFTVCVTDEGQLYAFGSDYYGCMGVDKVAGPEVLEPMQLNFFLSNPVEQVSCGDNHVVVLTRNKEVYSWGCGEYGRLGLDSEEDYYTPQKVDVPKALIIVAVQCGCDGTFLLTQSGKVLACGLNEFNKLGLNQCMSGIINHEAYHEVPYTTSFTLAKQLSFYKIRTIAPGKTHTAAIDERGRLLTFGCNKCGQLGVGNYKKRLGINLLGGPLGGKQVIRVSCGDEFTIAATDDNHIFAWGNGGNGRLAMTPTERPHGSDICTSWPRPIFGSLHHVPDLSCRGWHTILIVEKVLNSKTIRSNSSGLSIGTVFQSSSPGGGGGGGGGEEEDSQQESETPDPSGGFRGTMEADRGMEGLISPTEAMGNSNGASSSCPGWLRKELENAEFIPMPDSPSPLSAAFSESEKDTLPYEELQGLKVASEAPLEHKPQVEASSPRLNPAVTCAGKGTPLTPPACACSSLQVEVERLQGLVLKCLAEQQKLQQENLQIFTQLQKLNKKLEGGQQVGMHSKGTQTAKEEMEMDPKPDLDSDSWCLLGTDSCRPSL", "details": "0.1 µM; binder"}, "PRKG1": {"biological_target": "PRKG1 (Homo sapiens, UniProt Q13976)", "details": "0.1 µM; binder"}, "STK36": {"biological_target": "STK36 (Homo sapiens, UniProt Q9NRP7)", "details": "0.1 µM; binder"}, "CDC2L5": {"biological_target": "CDC2L5 (Homo sapiens, UniProt Q14004)", "details": "0.1 µM; binder"}, "SRPK3": {"biological_target": "SRPK3 (Homo sapiens, UniProt Q9UPE1)", "details": "0.1 µM; binder"}, "AKT1": {"biological_target": "AKT1 (Homo sapiens, UniProt P31749)", "details": "0.1 µM; binder"}, "PIP4K2C": {"biological_target": "PIP4K2C (Homo sapiens, UniProt Q8TBX8)", "sequence (Q8TBX8 whole entry)": "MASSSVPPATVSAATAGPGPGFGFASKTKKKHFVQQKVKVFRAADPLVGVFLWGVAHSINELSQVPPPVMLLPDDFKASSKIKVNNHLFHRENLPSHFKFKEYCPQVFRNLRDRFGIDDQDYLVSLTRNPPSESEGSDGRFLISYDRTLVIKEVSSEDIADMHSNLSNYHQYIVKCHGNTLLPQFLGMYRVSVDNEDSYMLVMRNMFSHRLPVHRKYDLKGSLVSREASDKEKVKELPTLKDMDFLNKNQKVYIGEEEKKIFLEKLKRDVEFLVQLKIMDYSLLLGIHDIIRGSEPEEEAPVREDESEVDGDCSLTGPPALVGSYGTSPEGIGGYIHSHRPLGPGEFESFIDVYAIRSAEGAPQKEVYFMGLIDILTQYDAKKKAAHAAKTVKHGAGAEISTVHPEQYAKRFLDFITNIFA", "details": "0.1 µM; binder"}, "MKNK1": {"biological_target": "MKNK1 (Homo sapiens, UniProt Q9BUB5)", "details": "0.1 µM; binder"}, "MAPKAPK2": {"biological_target": "MAPKAPK2 (Homo sapiens, UniProt P49137)", "details": "0.1 µM; binder"}, "AKT3": {"biological_target": "AKT3 (Homo sapiens, UniProt Q9Y243)", "sequence (Q9Y243 whole entry)": "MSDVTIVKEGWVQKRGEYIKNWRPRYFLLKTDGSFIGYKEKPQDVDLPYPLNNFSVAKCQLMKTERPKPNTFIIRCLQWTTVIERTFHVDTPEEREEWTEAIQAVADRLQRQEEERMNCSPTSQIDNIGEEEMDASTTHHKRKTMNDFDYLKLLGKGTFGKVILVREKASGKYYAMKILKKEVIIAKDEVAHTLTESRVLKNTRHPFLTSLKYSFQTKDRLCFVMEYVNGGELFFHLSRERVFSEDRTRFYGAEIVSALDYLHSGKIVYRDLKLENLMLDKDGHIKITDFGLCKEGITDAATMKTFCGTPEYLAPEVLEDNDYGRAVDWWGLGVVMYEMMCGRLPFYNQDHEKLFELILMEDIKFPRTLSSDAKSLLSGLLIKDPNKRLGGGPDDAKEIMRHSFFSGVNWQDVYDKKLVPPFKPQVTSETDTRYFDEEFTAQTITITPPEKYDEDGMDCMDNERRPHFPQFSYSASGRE", "details": "0.1 µM; binder"}, "WNK3": {"biological_target": "WNK3 (Homo sapiens, UniProt Q9BYP7)", "details": "0.1 µM; binder"}}, "note": "Read-outs that look alike come from different tables or passages of the source.", "data": [{"smiles": "CNc1ncc2cc(-c3ccc(-c4cccc(C)n4)cc3Cl)c(=O)n(C[C@H]3OC[C@H](N)CO3)c2n1", "note": "[compound 6, G-5555]", "values": [{"measurement": "Percent Control", "setting": "CAMK1", "value": 100, "unit": "%"}, {"measurement": "Percent Control", "setting": "ABL1(T315I); nonphosphorylated", "value": 90, "unit": "%"}, {"measurement": "Percent Control", "setting": "ABL1(T315I); phosphorylated", "value": 100, "unit": "%"}, {"measurement": "Percent Control", "setting": "LIMK1", "value": 93, "unit": "%"}, {"measurement": "Percent Control", "setting": "MAP3K1", "value": 81, "unit": "%"}, {"measurement": "Percent Control", "setting": "ROS1", "value": 100, "unit": "%"}, {"measurement": "Percent Control", "setting": "SLK", "value": 89, "unit": "%"}, {"measurement": "Percent Control", "setting": "CDKL1", "value": 100, "unit": "%"}, {"measurement": "Percent Control", "setting": "CSNK1G2", "value": 100, "unit": "%"}, {"measurement": "Percent Control", "setting": "CSNK1D", "value": 90, "unit": "%"}, {"measurement": "Percent Control", "setting": "ABL1(H396P); nonphosphorylated", "value": 79, "unit": "%"}, {"measurement": "Percent Control", "setting": "ABL1(H396P); phosphorylated", "value": 97, "unit": "%"}, {"measurement": "Percent Control", "setting": "CHEK1", "value": 100, "unit": "%"}, {"measurement": "Percent Control", "setting": "YSK1", "value": 40, "unit": "%"}, {"measurement": "Percent Control", "setting": "GRK2", "value": 97, "unit": "%"}, {"measurement": "Percent Control", "setting": "PRKCI", "value": 97, "unit": "%"}, {"measurement": "Percent Control", "setting": "YSK4", "value": 70, "unit": "%"}, {"measurement": "Percent Control", "setting": "KIT(D816H)", "value": 100, "unit": "%"}, {"measurement": "Percent Control", "setting": "MEK6", "value": 80, "unit": "%"}, {"measurement": "Percent Control", "setting": "CAMK2D", "value": 100, "unit": "%"}, {"measurement": "Percent Control", "setting": "PLK3", "value": 86, "unit": "%"}, {"measurement": "Percent Control", "setting": "PRKCE", "value": 95, "unit": "%"}, {"measurement": "Percent Control", "setting": "NEK9", "value": 100, "unit": "%"}, {"measurement": "Percent Control", "setting": "PRKG1", "value": 100, "unit": "%"}, {"measurement": "Percent Control", "setting": "STK36", "value": 36, "unit": "%"}, {"measurement": "Percent Control", "setting": "CDC2L5", "value": 79, "unit": "%"}, {"measurement": "Percent Control", "setting": "SRPK3", "value": 100, "unit": "%"}, {"measurement": "Percent Control", "setting": "AKT1", "value": 100, "unit": "%"}, {"measurement": "Percent Control", "setting": "PIP4K2C", "value": 79, "unit": "%"}, {"measurement": "Percent Control", "setting": "MKNK1", "value": 100, "unit": "%"}, {"measurement": "Percent Control", "setting": "MAPKAPK2", "value": 100, "unit": "%"}, {"measurement": "Percent Control", "setting": "AKT3", "value": 95, "unit": "%"}, {"measurement": "Percent Control", "setting": "WNK3", "value": 100, "unit": "%"}]}]}
